According to US9308230B2, “Combination of proanthocyanidins and centella asiatica for the treatment of atherosclerosis” (HORPHAG RESEARCH IP, priority 2009, dated 2016):

Tested on: hypoechoic-echolucent carotid and femoral atherosclerotic plaques
Assay: Grey Scale Median (GSM) ultrasound measurement of echolucent carotid and femoral atherosclerotic plaques, prospective 6-month trial
Format: in vivo, human
Conditions: once daily for 6 months, 100 mg/day of each component; responders/patients in group; ** = significant vs initial value and control
Protocol: Variation in echogenicity of echolucent carotid and femoral atherosclerotic plaques with combined treatment (Pycnogenol 100 mg+TTFCA 100 mg, with or without Aspirin 100 mg). A prospective, pilot 6-month trial. (TTFCA=total triterpenic fraction of Centella asiatica) This study has evaluated whether a combination of Pycnogenol® and TTFCA, with or without Aspirin, was effective in reducing plaque progression and cardiovascular risk of events by decreasing platelet aggregation, local arterial inflammation and the intima-media scarring process due to inflammation at the level of carotid and femoral arteries bifurcations. This prospective placebo-controlled trial had the purpose of evaluating the effects of Pycnogenol® and TTFCA, with or without Aspirin, selectivity on hypoechoic-echolucent plaques. The sonographic examination of carotid plaques was made with high-resolution ultrasound. Capturing plaques images, digital image processing, and normalization were standardized. The interobserver, […], gain-level variability were also standardized using as reference blood (black) for the most echolucent parts of the plaque and the adventitia (white) as the most echogenic part. The technique for plaque characterization and GSM (Grey Scale Median) measurements had been previously described in details. […]

## CC(=O)Oc1ccccc1C(=O)O [Aspirin, acetylsalicylic acid]
  At 6 months: number of patients with an increase of plaques Grey Scale Median of at least 5 points: 2/18
